In patent US9340590B2 (priority 2011, dated 2016) one finds IC50 data, which are given here for eight compounds.

Positions of bridges follow the written chain, without caps; N, C: chain ends. Non-standard residues stand in square brackets, D forms with d. Residues, ends and D or L forms follow the SMILES beside them. NMeF = CN[C@@H](Cc1ccccc1)C(=O)O; Phg = N[C@H](C(=O)O)c1ccccc1

What all share (assay): cell-based
Test [1] concerns the target hNav1.5 (Homo sapiens, UniProt Q14524). To be noted: IonWorks Quattro, Use; read-out: IWQ Use Nav1.5. Background: The patch-clamp technique gives a direct electrical read-out from membranes.
Test [2] addresses hNav1.3 (Homo sapiens, UniProt Q9NY46). The conditions noted are these: IonWorks Quattro, Use; read-out: IWQ Use Nav1.3.
The target of test [3] is hNav1.7 (Homo sapiens, UniProt Q15858). The class given is cell-based. To be noted: IonWorks Quattro, Use; read-out: IWQ Use Nav1.7.

hNav1.5, sequence (Q14524 whole entry, looked up): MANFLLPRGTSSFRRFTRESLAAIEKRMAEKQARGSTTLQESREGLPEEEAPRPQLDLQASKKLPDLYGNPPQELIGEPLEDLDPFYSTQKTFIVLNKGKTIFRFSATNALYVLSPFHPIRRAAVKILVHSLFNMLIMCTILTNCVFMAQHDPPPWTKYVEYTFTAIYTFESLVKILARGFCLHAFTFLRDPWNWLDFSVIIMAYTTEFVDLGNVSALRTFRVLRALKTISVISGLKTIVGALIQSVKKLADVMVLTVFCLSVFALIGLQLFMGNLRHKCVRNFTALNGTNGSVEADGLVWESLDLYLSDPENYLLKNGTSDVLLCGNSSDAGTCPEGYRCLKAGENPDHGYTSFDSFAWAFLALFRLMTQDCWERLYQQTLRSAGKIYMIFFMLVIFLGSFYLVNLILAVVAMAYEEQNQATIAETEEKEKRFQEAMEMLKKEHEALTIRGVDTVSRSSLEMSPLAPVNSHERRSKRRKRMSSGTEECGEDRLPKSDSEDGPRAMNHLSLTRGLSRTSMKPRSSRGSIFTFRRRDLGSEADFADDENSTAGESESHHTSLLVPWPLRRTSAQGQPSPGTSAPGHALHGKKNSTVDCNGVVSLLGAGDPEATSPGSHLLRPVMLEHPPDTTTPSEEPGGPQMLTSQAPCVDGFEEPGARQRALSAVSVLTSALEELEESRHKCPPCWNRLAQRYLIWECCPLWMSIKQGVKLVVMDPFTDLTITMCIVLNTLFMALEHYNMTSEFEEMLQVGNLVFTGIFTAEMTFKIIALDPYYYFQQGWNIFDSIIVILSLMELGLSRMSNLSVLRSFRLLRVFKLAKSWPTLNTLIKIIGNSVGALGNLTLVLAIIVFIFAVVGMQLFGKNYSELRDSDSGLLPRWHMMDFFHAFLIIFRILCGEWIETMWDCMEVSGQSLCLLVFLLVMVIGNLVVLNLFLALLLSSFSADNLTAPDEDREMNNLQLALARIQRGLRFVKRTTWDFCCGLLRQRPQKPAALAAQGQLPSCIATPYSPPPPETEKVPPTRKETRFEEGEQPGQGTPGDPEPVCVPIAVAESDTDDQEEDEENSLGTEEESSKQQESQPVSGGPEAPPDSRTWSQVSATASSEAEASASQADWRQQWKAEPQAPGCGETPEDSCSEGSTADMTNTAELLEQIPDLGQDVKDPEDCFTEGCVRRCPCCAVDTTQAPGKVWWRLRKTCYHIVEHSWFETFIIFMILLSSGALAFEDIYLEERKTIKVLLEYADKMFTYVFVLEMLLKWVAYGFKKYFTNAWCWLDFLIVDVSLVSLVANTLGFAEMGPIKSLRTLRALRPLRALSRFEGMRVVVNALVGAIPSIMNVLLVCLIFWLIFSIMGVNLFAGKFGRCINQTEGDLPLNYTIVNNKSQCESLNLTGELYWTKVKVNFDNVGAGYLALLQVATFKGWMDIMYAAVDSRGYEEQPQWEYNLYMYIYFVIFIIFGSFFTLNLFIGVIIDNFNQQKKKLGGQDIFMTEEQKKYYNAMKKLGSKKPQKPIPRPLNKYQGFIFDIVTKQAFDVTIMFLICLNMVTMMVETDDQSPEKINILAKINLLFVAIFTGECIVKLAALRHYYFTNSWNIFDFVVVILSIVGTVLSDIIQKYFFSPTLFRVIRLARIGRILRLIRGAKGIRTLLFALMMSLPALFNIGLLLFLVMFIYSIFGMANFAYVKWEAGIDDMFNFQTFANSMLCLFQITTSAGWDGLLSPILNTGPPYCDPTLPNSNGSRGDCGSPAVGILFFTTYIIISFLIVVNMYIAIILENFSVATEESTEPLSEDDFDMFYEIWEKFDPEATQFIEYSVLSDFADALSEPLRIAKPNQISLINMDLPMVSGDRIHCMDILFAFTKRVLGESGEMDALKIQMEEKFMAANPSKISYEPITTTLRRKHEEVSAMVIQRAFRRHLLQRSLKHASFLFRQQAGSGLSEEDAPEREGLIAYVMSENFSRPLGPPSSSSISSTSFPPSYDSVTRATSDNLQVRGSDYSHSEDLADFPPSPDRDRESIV
hNav1.3, sequence (Q9NY46 whole entry, looked up): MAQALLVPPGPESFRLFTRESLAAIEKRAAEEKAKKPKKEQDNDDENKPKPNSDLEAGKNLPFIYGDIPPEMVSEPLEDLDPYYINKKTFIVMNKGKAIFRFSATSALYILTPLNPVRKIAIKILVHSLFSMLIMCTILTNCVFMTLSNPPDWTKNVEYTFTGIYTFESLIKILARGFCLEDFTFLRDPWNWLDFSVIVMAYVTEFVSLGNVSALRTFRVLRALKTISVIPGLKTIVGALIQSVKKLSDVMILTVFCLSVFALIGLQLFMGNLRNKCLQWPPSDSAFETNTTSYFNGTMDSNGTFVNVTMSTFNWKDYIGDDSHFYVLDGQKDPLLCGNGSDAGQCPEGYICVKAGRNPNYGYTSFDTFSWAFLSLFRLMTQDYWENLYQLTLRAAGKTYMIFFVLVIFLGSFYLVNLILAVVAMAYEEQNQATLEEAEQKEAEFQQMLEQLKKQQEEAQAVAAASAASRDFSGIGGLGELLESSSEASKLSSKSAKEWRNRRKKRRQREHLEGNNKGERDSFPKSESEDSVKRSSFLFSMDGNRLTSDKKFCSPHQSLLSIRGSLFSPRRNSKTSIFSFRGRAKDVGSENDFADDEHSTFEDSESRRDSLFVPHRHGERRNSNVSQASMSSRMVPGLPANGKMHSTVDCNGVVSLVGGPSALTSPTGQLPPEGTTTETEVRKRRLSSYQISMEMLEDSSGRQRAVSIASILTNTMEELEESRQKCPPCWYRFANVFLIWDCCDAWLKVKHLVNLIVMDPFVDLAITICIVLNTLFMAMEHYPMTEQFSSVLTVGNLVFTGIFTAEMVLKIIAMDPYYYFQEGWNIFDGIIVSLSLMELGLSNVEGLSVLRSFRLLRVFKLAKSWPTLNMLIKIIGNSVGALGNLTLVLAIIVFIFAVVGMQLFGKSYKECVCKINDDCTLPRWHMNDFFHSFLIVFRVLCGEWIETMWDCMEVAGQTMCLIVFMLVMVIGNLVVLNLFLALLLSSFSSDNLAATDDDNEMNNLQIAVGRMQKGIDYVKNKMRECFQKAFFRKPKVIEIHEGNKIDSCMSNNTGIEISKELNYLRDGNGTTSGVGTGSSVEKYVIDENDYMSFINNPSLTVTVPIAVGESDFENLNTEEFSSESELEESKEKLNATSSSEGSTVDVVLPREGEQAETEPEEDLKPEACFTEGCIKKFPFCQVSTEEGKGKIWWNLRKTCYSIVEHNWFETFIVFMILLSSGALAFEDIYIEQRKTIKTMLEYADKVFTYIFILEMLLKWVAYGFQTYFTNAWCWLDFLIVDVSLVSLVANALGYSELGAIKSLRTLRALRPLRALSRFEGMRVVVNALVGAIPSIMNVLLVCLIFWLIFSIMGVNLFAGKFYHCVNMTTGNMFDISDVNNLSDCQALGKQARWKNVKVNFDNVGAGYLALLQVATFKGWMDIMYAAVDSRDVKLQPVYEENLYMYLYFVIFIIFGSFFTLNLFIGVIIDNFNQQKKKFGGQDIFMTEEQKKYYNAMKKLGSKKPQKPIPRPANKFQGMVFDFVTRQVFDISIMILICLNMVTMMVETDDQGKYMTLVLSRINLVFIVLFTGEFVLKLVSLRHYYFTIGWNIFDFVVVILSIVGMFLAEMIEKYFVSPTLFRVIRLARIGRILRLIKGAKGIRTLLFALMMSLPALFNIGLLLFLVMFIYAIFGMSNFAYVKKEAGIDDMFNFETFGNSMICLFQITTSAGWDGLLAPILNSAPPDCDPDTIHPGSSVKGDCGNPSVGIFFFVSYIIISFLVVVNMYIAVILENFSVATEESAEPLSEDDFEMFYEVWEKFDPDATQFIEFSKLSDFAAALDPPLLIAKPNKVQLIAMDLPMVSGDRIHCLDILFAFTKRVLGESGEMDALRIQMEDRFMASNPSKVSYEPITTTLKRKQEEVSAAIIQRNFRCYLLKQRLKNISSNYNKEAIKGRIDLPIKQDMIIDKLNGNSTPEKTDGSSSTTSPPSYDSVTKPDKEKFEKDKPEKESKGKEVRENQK

Regarding `CC[C@H](C)[C@@H]1NC(=O)[C@@H]2CSSC[C@@H]3NC(=O)[C@H](CC(N)=O)NC(=O)[C@H](CC(C)C)NC(=O)[C@H](CC(N)=O)NC(=O)[C@@H]4CCCN4C(=O)[C@H](CCCNC(=N)N)NC(=O)[C@H](CSSC[C@H](NC(=O)[C@@H](N)CC(=O)O)C(=O)N[C@@H](CC(C)C)C(=O)NCC(=O)N[C@@H](Cc4ccccc4)C(=O)N[C@@H](CCSC)C(=O)N[C@@H](CCCNC(=N)N)C(=O)N[C@@H](CCCCN)C(=O)N2)NC(=O)[C@H](CSSC[C@@H](C(=O)N[C@@H](CCCCN)C(=O)N[C@@H](Cc2ccc(O)cc2)C(=O)N[C@H](C(=O)N[C@@H](Cc2ccccc2)C(N)=O)C(C)C)NC(=O)[C@H](Cc2c[nH]c4ccccc24)NC(=O)[C@H](CCCCN)NC(=O)[C@H](Cc2c[nH]cn2)NC(=O)[C@H]([C@@H](C)O)NC(=O)[C@H](CCCNC(=N)N)NC(=O)[C@H](CO)NC3=O)NC(=O)[C@H](CCCCN)NC(=O)[C@H](CC(=O)O)NC(=O)[C@H](CC(N)=O)NC(=O)[C@H](CC(=O)O)NC(=O)[C@@H]2CCCN2C1=O` [compound 325] (H-DCLGFMRKCIPDNDKCCRPNLNCSRTHKWCKYVF-NH2; disulfide 2-17, 9-23, 16-30), the IC50 in test [1] came to 8070 nM; in test [2], 90 nM; in test [3] it was 240 nM.
As for `CC[C@H](C)[C@@H]1NC(=O)[C@@H]2CSSC[C@@H]3NC(=O)[C@H](Cc4c[nH]cn4)NC(=O)[C@H](CC(C)C)NC(=O)[C@H](CC(N)=O)NC(=O)[C@@H]4CCCN4C(=O)[C@H](CCCNC(=N)N)NC(=O)[C@H](CSSC[C@H](NC(=O)[C@@H](N)CC(=O)O)C(=O)N[C@@H](CC(C)C)C(=O)NCC(=O)N[C@@H](Cc4ccccc4)C(=O)N[C@@H](CCSC)C(=O)N[C@@H](CCCNC(=N)N)C(=O)N[C@@H](CCCCN)C(=O)N2)NC(=O)[C@H](CSSC[C@@H](C(=O)N[C@@H](CCCCN)C(=O)N[C@@H](Cc2ccc(O)cc2)C(=O)N[C@H](C(=O)N[C@@H](Cc2ccccc2)C(N)=O)C(C)C)NC(=O)[C@H](Cc2c[nH]c4ccccc24)NC(=O)[C@H](CCCCN)NC(=O)[C@H](Cc2c[nH]cn2)NC(=O)[C@H]([C@@H](C)O)NC(=O)[C@H](CCCNC(=N)N)NC(=O)[C@H](CO)NC3=O)NC(=O)[C@H](CCCCN)NC(=O)[C@H](CC(=O)O)NC(=O)[C@H](CC(N)=O)NC(=O)[C@H](CC(=O)O)NC(=O)[C@@H]2CCCN2C1=O` [compound 326] (H-DCLGFMRKCIPDNDKCCRPNLHCSRTHKWCKYVF-NH2; disulfide 2-17, 9-23, 16-30), the IC50 was 15600 nM in test [1], 100 nM in test [2] and 410 nM in test [3].
The matching figures for `CC[C@H](C)[C@@H]1NC(=O)[C@@H]2CSSC[C@@H]3NC(=O)[C@H](CC(=O)O)NC(=O)[C@H](CC(C)C)NC(=O)[C@H](CC(N)=O)NC(=O)[C@@H]4CCCN4C(=O)[C@H](CCCNC(=N)N)NC(=O)[C@H](CSSC[C@H](NC(=O)[C@@H](N)CC(=O)O)C(=O)N[C@@H](CC(C)C)C(=O)NCC(=O)N[C@@H](Cc4ccccc4)C(=O)N[C@@H](CCSC)C(=O)N[C@@H](CCCNC(=N)N)C(=O)N[C@@H](CCCCN)C(=O)N2)NC(=O)[C@H](CSSC[C@@H](C(=O)N[C@@H](CCCCN)C(=O)N[C@@H](Cc2ccc(O)cc2)C(=O)N[C@H](C(=O)N[C@@H](Cc2ccccc2)C(N)=O)C(C)C)NC(=O)[C@H](Cc2c[nH]c4ccccc24)NC(=O)[C@H](CCCCN)NC(=O)[C@H](Cc2c[nH]cn2)NC(=O)[C@H]([C@@H](C)O)NC(=O)[C@H](CCCNC(=N)N)NC(=O)[C@H](CO)NC3=O)NC(=O)[C@H](CCCCN)NC(=O)[C@H](CC(=O)O)NC(=O)[C@H](CC(N)=O)NC(=O)[C@H](CC(=O)O)NC(=O)[C@@H]2CCCN2C1=O` [compound 327] (H-DCLGFMRKCIPDNDKCCRPNLDCSRTHKWCKYVF-NH2; disulfide 2-17, 9-23, 16-30): 13300 nM, 630 nM and 1500 nM.
For `CC[C@H](C)[C@@H]1NC(=O)[C@@H]2CSSC[C@@H]3NC(=O)[C@H](Cc4ccccc4)N(C)C(=O)[C@H](CC(C)C)NC(=O)[C@H](CC(N)=O)NC(=O)[C@@H]4CCCN4C(=O)[C@H](CCCNC(=N)N)NC(=O)[C@H](CSSC[C@H](NC(=O)[C@@H](N)CC(=O)O)C(=O)N[C@@H](CC(C)C)C(=O)NCC(=O)N[C@@H](Cc4ccccc4)C(=O)N[C@@H](CCSC)C(=O)N[C@@H](CCCNC(=N)N)C(=O)N[C@@H](CCCCN)C(=O)N2)NC(=O)[C@H](CSSC[C@@H](C(=O)N[C@@H](CCCCN)C(=O)N[C@@H](Cc2ccc(O)cc2)C(=O)N[C@H](C(=O)N[C@@H](Cc2ccccc2)C(N)=O)C(C)C)NC(=O)[C@H](Cc2c[nH]c4ccccc24)NC(=O)[C@H](CCCCN)NC(=O)[C@H](Cc2c[nH]cn2)NC(=O)[C@H]([C@@H](C)O)NC(=O)[C@H](CCCNC(=N)N)NC(=O)[C@H](CO)NC3=O)NC(=O)[C@H](CCCCN)NC(=O)[C@H](CC(=O)O)NC(=O)[C@H](CC(N)=O)NC(=O)[C@H](CC(=O)O)NC(=O)[C@@H]2CCCN2C1=O` [compound 328] (H-DCLGFMRKCIPDNDKCCRPNL[NMeF]CSRTHKWCKYVF-NH2; disulfide 2-17, 9-23, 16-30), in that order: 20400 nM, 7370 nM and 20600 nM.
The matching figures for `CC[C@H](C)[C@@H]1NC(=O)[C@@H]2CSSC[C@@H]3NC(=O)[C@H]([C@@H](C)O)NC(=O)[C@H](CC(C)C)NC(=O)[C@H](CC(N)=O)NC(=O)[C@@H]4CCCN4C(=O)[C@H](CCCNC(=N)N)NC(=O)[C@H](CSSC[C@H](NC(=O)[C@@H](N)CC(=O)O)C(=O)N[C@@H](CC(C)C)C(=O)NCC(=O)N[C@@H](Cc4ccccc4)C(=O)N[C@@H](CCSC)C(=O)N[C@@H](CCCNC(=N)N)C(=O)N[C@@H](CCCCN)C(=O)N2)NC(=O)[C@H](CSSC[C@@H](C(=O)N[C@@H](CCCCN)C(=O)N[C@@H](Cc2ccc(O)cc2)C(=O)N[C@H](C(=O)N[C@@H](Cc2ccccc2)C(N)=O)C(C)C)NC(=O)[C@H](Cc2c[nH]c4ccccc24)NC(=O)[C@H](CCCCN)NC(=O)[C@H](Cc2c[nH]cn2)NC(=O)[C@H]([C@@H](C)O)NC(=O)[C@H](CCCNC(=N)N)NC(=O)[C@H](CO)NC3=O)NC(=O)[C@H](CCCCN)NC(=O)[C@H](CC(=O)O)NC(=O)[C@H](CC(N)=O)NC(=O)[C@H](CC(=O)O)NC(=O)[C@@H]2CCCN2C1=O` [compound 329] (H-DCLGFMRKCIPDNDKCCRPNLTCSRTHKWCKYVF-NH2; disulfide 2-17, 9-23, 16-30): 4590 nM, 80 nM and 120 nM.
For `CC[C@H](C)[C@@H]1NC(=O)[C@@H]2CSSC[C@@H]3NC(=O)[C@H](c4ccccc4)NC(=O)[C@H](CC(C)C)NC(=O)[C@H](CC(N)=O)NC(=O)[C@@H]4CCCN4C(=O)[C@H](CCCNC(=N)N)NC(=O)[C@H](CSSC[C@H](NC(=O)[C@@H](N)CC(=O)O)C(=O)N[C@@H](CC(C)C)C(=O)NCC(=O)N[C@@H](Cc4ccccc4)C(=O)N[C@@H](CCSC)C(=O)N[C@@H](CCCNC(=N)N)C(=O)N[C@@H](CCCCN)C(=O)N2)NC(=O)[C@H](CSSC[C@@H](C(=O)N[C@@H](CCCCN)C(=O)N[C@@H](Cc2ccc(O)cc2)C(=O)N[C@H](C(=O)N[C@@H](Cc2ccccc2)C(N)=O)C(C)C)NC(=O)[C@H](Cc2c[nH]c4ccccc24)NC(=O)[C@H](CCCCN)NC(=O)[C@H](Cc2c[nH]cn2)NC(=O)[C@H]([C@@H](C)O)NC(=O)[C@H](CCCNC(=N)N)NC(=O)[C@H](CO)NC3=O)NC(=O)[C@H](CCCCN)NC(=O)[C@H](CC(=O)O)NC(=O)[C@H](CC(N)=O)NC(=O)[C@H](CC(=O)O)NC(=O)[C@@H]2CCCN2C1=O` [compound 330] (H-DCLGFMRKCIPDNDKCCRPNL[Phg]CSRTHKWCKYVF-NH2; disulfide 2-17, 9-23, 16-30), the IC50 was determined as 4690 nM in test [1], 70 nM in test [2] and 180 nM in test [3].
The matching figures for `CC[C@H](C)[C@@H]1NC(=O)[C@@H]2CSSC[C@@H]3NC(=O)[C@H](Cc4ccc(O)cc4)NC(=O)[C@H](CC(C)C)NC(=O)[C@H](CC(N)=O)NC(=O)[C@@H]4CCCN4C(=O)[C@H](CCCNC(=N)N)NC(=O)[C@H](CSSC[C@H](NC(=O)[C@@H](N)CC(=O)O)C(=O)N[C@@H](CC(C)C)C(=O)NCC(=O)N[C@@H](Cc4ccccc4)C(=O)N[C@@H](CCSC)C(=O)N[C@@H](CCCNC(=N)N)C(=O)N[C@@H](CCCCN)C(=O)N2)NC(=O)[C@H](CSSC[C@@H](C(=O)N[C@@H](CCCCN)C(=O)N[C@@H](Cc2ccc(O)cc2)C(=O)N[C@H](C(=O)N[C@@H](Cc2ccccc2)C(N)=O)C(C)C)NC(=O)[C@H](Cc2c[nH]c4ccccc24)NC(=O)[C@H](CCCCN)NC(=O)[C@H](Cc2c[nH]cn2)NC(=O)[C@H]([C@@H](C)O)NC(=O)[C@H](CCCNC(=N)N)NC(=O)[C@H](CO)NC3=O)NC(=O)[C@H](CCCCN)NC(=O)[C@H](CC(=O)O)NC(=O)[C@H](CC(N)=O)NC(=O)[C@H](CC(=O)O)NC(=O)[C@@H]2CCCN2C1=O` [compound 331] (H-DCLGFMRKCIPDNDKCCRPNLYCSRTHKWCKYVF-NH2; disulfide 2-17, 9-23, 16-30): 4260 nM, 500 nM and 560 nM.
For `CC[C@H](C)[C@@H]1NC(=O)[C@@H]2CSSC[C@@H]3NC(=O)[C@H](CCSC)NC(=O)[C@H](CC(C)C)NC(=O)[C@H](CC(N)=O)NC(=O)[C@@H]4CCCN4C(=O)[C@H](CCCNC(=N)N)NC(=O)[C@H](CSSC[C@H](NC(=O)[C@@H](N)CC(=O)O)C(=O)N[C@@H](CC(C)C)C(=O)NCC(=O)N[C@@H](Cc4ccccc4)C(=O)N[C@@H](CCSC)C(=O)N[C@@H](CCCNC(=N)N)C(=O)N[C@@H](CCCCN)C(=O)N2)NC(=O)[C@H](CSSC[C@@H](C(=O)N[C@@H](CCCCN)C(=O)N[C@@H](Cc2ccc(O)cc2)C(=O)N[C@H](C(=O)N[C@@H](Cc2ccccc2)C(N)=O)C(C)C)NC(=O)[C@H](Cc2c[nH]c4ccccc24)NC(=O)[C@H](CCCCN)NC(=O)[C@H](Cc2c[nH]cn2)NC(=O)[C@H]([C@@H](C)O)NC(=O)[C@H](CCCNC(=N)N)NC(=O)[C@H](CO)NC3=O)NC(=O)[C@H](CCCCN)NC(=O)[C@H](CC(=O)O)NC(=O)[C@H](CC(N)=O)NC(=O)[C@H](CC(=O)O)NC(=O)[C@@H]2CCCN2C1=O` [compound 332] (H-DCLGFMRKCIPDNDKCCRPNLMCSRTHKWCKYVF-NH2; disulfide 2-17, 9-23, 16-30), in that order: 4610 nM, 80 nM and 90 nM.
